{"source": "patent US12329753B2", "about": "“Phosphodiesterase inhibitor treatment” (Cyrano Therapeutics, Inc., priority 2008, dated 2025)", "system": "asthmatic patients", "experiment": "sGaw after inhaled dry powder in asthmatic patients, single blind study (Examples 5, 6)", "format": "in vivo, human", "conditions": "dry powder 1 mg inhaled", "description": "To test this theory, asthmatic patients are enrolled in a dose escalating single blind study. On arrival to the clinic, subjects are allowed to rest for 20 minutes before baseline measurements of FEV1 (six recordings) and sGaw (five recordings) are made. Subjects receive a dry powder dispenser loaded with a dose of 2 mg theophylline or a dry powder carrier. […] After each inhalation, measurements of sGaw are made at 1, 3, 5, 10, 15, 20, 25, and 30 minutes.\nOn completion of the last recording, subjects inhale a 200 μg dose of salbutamol from a metered inhaler and a further measurement of sGaw is made after 15 minutes. Subjects are also monitored for coughing and are questioned about the taste of the drug.\nAsthmatic patients are enrolled in a dose escalating single blind study. On arrival to the clinic, subjects are allowed to rest for 20 minutes before baseline measurements of FEV1 (six recordings) and sGaw (five recordings) are made. Subjects receive a dry powder dispenser loaded with a dose of 1 mg IBMX formulated as a dry powder or a dry powder carrier. […] After each inhalation, measurements of sGaw are made at 1, 3, 5, 10, 15, 20, 25, and 30 minutes.\nOn completion of the last recording, subjects inhale a 200 μg dose of salbutamol from a metered inhaler and a further measurement of sGaw mad after 15 minutes. Subjects are also be monitored for coughing and are questioned about the taste of the drug.", "data": [{"smiles": "CC(C)Cn1c(=O)n(C)c(=O)c2[nH]cnc21", "note": "[IBMX, 3-isobutyl-1-methylxanthine]", "values": [{"measurement": "increase in sGaw versus 200 μg salbutamol", "result": "comparable with that produced by salbutamol"}, {"measurement": "time until sGaw baseline is reached", "result": "one and a half hours"}, {"measurement": "sGaw above baseline measurement", "setting": "after 30 minutes", "result": 20, "unit": "%"}]}]}
